Measured values as given in patent US6884819B1, “Neuropathy remedies” (Teijin Limited, priority 1999, dated 2005).

Tests used:
[1] = system: Wistar rats; assay: Measurement of blood pressure lowering action (blood pressure and heart rate after intravenous injection without anesthesia); format: in vivo; design: Blood pressure (mmHg, ± standard error): unit not given here; settings: for Blood pressure (mmHg, ± standard error): 0 min. value assigned 100
Procedure: Thirty five, male Wistar rats.
Cannulas were inserted into the left carotid artery for measuring blood pressure, and into the left jugular vein for intravenous injection of the test compounds, respectively. After being housed normally in their cages overnight following surgery, the animals were injected with the test solutions without anesthesia. Blood pressure and heart rate were measured immediately before dosing (0 minutes) and at 5, 30, 60, 120 and 240 minutes after dosing. The blood pressure at 0 minutes for each animals was assigned a value of 100, and measured values of blood pressure at each time were then normalized based on that value.

[2] = system: Alzheimer's dementia animal model by continuous intraventricular infusion of β protein; assay: Step-through passive evasion test in rats with continuous intraventricular infusion of β-amyloid protein (learning and memory ability improvement effect); format: in vivo, Wistar rats
Description: A step-through passive evasive reaction apparatus composed of two chambers separated by a guillotine door, was used for the experimental apparatus. Namely, one of the chambers was a bright chamber composed of clear acrylic boards (floor: 15 cm×25 cm, height: 15 cm) while the other chamber was a dark chamber (of the same size) composed of black acrylic boards. In addition, stainless steel grids having a diameter of 4 mm were provided at intervals of 15 mm on the floor of the dark room, and connected to a shock generator for applying an electric shock. To begin with, after opening the guillotine door and allowing to freely explore the inside of the apparatus for 1 minute, the door was closed, the rat was placed in the bright chamber as an acquisition trial and the door was opened 30 seconds later. The door was closed after all four limbs of the rat entered the dark chamber followed immediately by the application of an electric shock. […] As a retention trial conducted 24 hours after the acquisition trial, the rat was placed in the bright chamber and the amount of time until all four limbs entered the dark chamber after the guillotine door was opened 30 seconds later was measured (step-through latency). […] The learning and memory ability improvement action of test compound A was measured using the evaluation methods of Reference Examples 1 and 2. […]

[3] = system: C57BL mice; assay: Toxicity study, single administration into the caudal vein; format: in vivo; settings: for Mortality: 0.03, 0.3, 3 mg/kg i.v., mice, 14 days observation; for Body weights: 0.03-3 mg/kg i.v., days 1, 3, 7 and 14 after dosing; for General condition starting on the day after dosing: all dose groups, day after dosing through day 14
Procedure: The test compound solutions were administered into the caudal vein at the rate of about 5 ml per minute. […] In addition, body weights were measured immediately before dosing and on days 1, 3, 7 and 14 after dosing.

[4] = 0.03 mg/kg i.v., 5 min. after dosing
[5] = 0.03 mg/kg i.v., 30 min. after dosing
[6] = 0.03 mg/kg i.v., 60 min. after dosing
[7] = 0.03 mg/kg i.v., 2 hr. after dosing
[8] = 0.03 mg/kg i.v., 4 hr. after dosing
[9] = 0.3 mg/kg i.v., 5 min. after dosing
[10] = 0.3 mg/kg i.v., 30 min. after dosing
[11] = 0.3 mg/kg i.v., 60 min. after dosing
[12] = 0.3 mg/kg i.v., 2 hr. after dosing
[13] = 0.3 mg/kg i.v., 4 hr. after dosing
[14] = 3 mg/kg i.v., 5 min. after dosing
[15] = 3 mg/kg i.v., 30 min. after dosing
[16] = 3 mg/kg i.v., 60 min. after dosing
[17] = 3 mg/kg i.v., 2 hr. after dosing
[18] = 3 mg/kg i.v., 4 hr. after dosing

Row | SMILES | Blood pressure (mmHg, ± standard error) [1, 4] | Blood pressure (mmHg, ± standard error) [1, 5] | Blood pressure (mmHg, ± standard error) [1, 6] | Blood pressure (mmHg, ± standard error) [1, 7] | Blood pressure (mmHg, ± standard error) [1, 8] | Blood pressure (mmHg, ± standard error) [1, 9] | Blood pressure (mmHg, ± standard error) [1, 10] | Blood pressure (mmHg, ± standard error) [1, 11] | Blood pressure (mmHg, ± standard error) [1, 12] | Blood pressure (mmHg, ± standard error) [1, 13] | Blood pressure (mmHg, ± standard error) [1, 14] | Blood pressure (mmHg, ± standard error) [1, 15] | Blood pressure (mmHg, ± standard error) [1, 16] | Blood pressure (mmHg, ± standard error) [1, 17] | Blood pressure (mmHg, ± standard error) [1, 18] | Mortality [3] | Body weights [3] | General condition starting on the day after dosing [3] | also measured
1 | COC(=O)CCCCC1=C[C@H]2C[C@@H](O)[C@H](/C=C/[C@@H](O)Cc3cccc(C)c3)[C@H]2C1 [Comparative Test Compound D, (15S)-16-(m-tolyl)-17,18,19,20-tetranorisocarbacycline methyl ester, reference compound] | 88.9 | 92.1 | 96.5 | 97.3 | 99.0 | 49.6 | 78.5 | 94.4 | 93.3 | 99.3 | 55.0 | 60.0 | 81.1 | 103.8 | 115.4 | – | – | – | Duration of decreased blood pressure ([1]; 3 mg/kg and 0.3 mg/kg dose groups, i.v.): ≥ 30 min
2 | Cc1cccc(C[C@@H](O)/C=C/[C@H]2[C@H](O)CC3C=C(CCCCC(=O)O)C[C@@H]32)c1 (stereo partly drawn) [Test compound A, (15R)-16-(m-tolyl)-17,18,19,20-tetranorisocarbacycline] | – | – | – | – | – | – | – | – | – | – | – | – | – | – | – | – | – | – | Time until moved to dark chamber during retention trial Mean ± standard error ([2]; β-amyloid protein (1-42) 300 pmol/day + test compound 1.2 fmol/day, intraventricular osmotic pump, max observation 300 sec): 265.7 ± 32.6 (n = 6) sec.; Learning and memory ability improvement action ([2]; β-amyloid protein (1-42) infused rats, overall conclusion): improved learning and memory ability
3 | COC(=O)CCCCC1=C[C@H]2C[C@@H](O)[C@H](/C=C/[C@H](O)Cc3cccc(C)c3)[C@H]2C1 [Test compound B, (15R)-16-(m-tolyl)-17,18,19,20-tetranorisocarbacycline methyl ester] | 105.8 | 103.4 | 103.6 | 104.5 | 100.5 | 92.9 | 97.7 | 97.7 | 98.5 | 98.0 | mild decrease | 99.4 | 101.9 | 102.7 | 101.0 | none of the animals died | no significant fluctuations | no abnormalities observed in any of the groups | Time until decreased movement disappeared after dosing ([3]; 3 mg/kg dose group, i.v.): ≤ 30 min; General condition on the day of dosing ([3]; 3 mg/kg dose group, i.v., starting immediately after dosing): decreased movement; Blood pressure change immediately after dosing ([1]; 3 mg/kg dose group, i.v.): decrease in blood pressure; Heart rate change immediately after dosing ([1]; 3 mg/kg dose group, i.v.): increase in heart rate; Time after dosing at which blood pressure and heart rate returned to normal ([1]; 3 mg/kg dose group, i.v.): 30 min; Blood pressure (mmHg, ± standard error) ([1]; 3 mg/kg i.v., 5 min. after dosing, listed as Test comp. B): 80.4; Fluctuations in blood pressure and heart rate ([1]; 0.3 and 0.03 mg/kg dose groups, i.v.): no significant fluctuations; Effect on the circulatory system (overall conclusion) ([1]; rats, i.v. 0.03-3 mg/kg): extremely mild effect
4 | COC(=O)CCCCC1=C[C@H]2C[C@@H](O)[C@H](/C=C/CCc3cccc(C)c3)[C@H]2C1 [Test compound C, 15-deoxy-16-(m-tolyl)-17,18,19,20-tetranorisocarbacycline methyl ester] | – | – | – | – | – | – | – | – | – | – | – | – | – | – | – | none of the animals died | no significant fluctuations | no abnormalities observed in any of the groups | General condition on the day of dosing ([3]; all dose groups (0.03, 0.3, 3 mg/kg i.v.)): no abnormalities observed in any of the groups
